What all share (assay): NCI-60 cell line screen, 48 h
Assay [1] relates to IGROV-1.
Assay [2] concerns HCC 2998.
For assay [3], the system named is NCI-H522.
Assay [4] deals with HOP-62.
The subject of assay [5] is DMS-273.
The subject of assay [6] is HT-29.
For assay [7], the system named is OVCAR-4.
For assay [8], the system named is RPMI-8226.
Assay [9] deals with OVCAR-3.
In assay [10] the test system is CCRF-CEM.
Assay [11] concerns OVCAR-5.
The subject of assay [12] is HCT-15.
Assay [13] has as its system SNB-19.
Assay [14] deals with HCT-116.
In assay [15] the test system is NCI-H23.
The subject of assay [16] is DLD-1.

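Following 48 hours of exposure in 96-well plates, responses at five concentrations were used to interpolate endpoints linearly. The concentration for 50% growth inhibition is given as GI50.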 Active and inactive are the calls of the source. Cut-off read from the data, not from the text of the source: active = GI50 up to about 1.1 µM and inactive = higher. Some results are limits rather than exact numbers.

Regarding `C=CCC(OCCOCC)c1cc(OCCOCC)ccc1OC` (stereo not given), the GI50 in [1], in [2], in [3], in assay [4], in assay [5] and in assay [6] was > 100 µM (inactive) each time. The GI50 in assay [7] was > 100 µM (inactive); in assay [8] it was > 100 µM (inactive); in [9], > 100 µM (inactive); in assay [10], > 100 µM (inactive); in [11], > 100 µM (inactive); in assay [12], > 100 µM. The GI50 in assay [13] is > 100 µM (inactive).
For `C1CN2CCO[SiH](O1)OCC2`, the GI50 in assay [1], in [14], in assay [2], in [3], in assay [5] and in assay [6] was > 100 µM (inactive) throughout. In addition, the GI50 in assay [15], in [16], in assay [8], in [9], in assay [10] and in [13] was > 100 µM (inactive) each time.
For the molecule `Brc1ccc(C2SCc3nc4ccccc4n32)cc1` (stereo not given), the GI50 in assay [1] is 10.3 µM (inactive); in assay [14], 6.3 µM (inactive); in assay [3], 2.3 µM (inactive); in assay [4] it was 7.57 µM (inactive); in [6], 7.78 µM (inactive); in assay [15], 2.75 µM (inactive). For the same molecule, the GI50 was 7.53 µM (inactive) in assay [7]; 10.5 µM (inactive) in [16]; 5.08 µM (inactive) in assay [8]; 4.83 µM (inactive) in assay [9]; 15.7 µM (inactive) in [10]; 5.4 µM (inactive) in assay [11]. The GI50 in assay [12] was 11.3 µM; in assay [13] it was 4.48 µM (inactive).
Turning to `COC(=O)[C@@]1(C)C(=O)CC[C@@H]1C=O`, the GI50 in assay [1], in assay [14], in assay [3], in assay [4], in assay [6] and in [15] was > 100 µM (inactive) in each case. In addition, the GI50 in assay [7], in assay [16], in assay [8], in assay [9], in assay [10] and in assay [11] was > 100 µM (inactive) throughout. In addition, the figures for the GI50 in assay [12] and in assay [13] were > 100 µM and > 100 µM (inactive), respectively.
As for `COC(=O)c1nc(C(=O)OC)c2c([nH]c3ccccc32)c1C(=O)OC`, the GI50 is > 100 µM (inactive) in assay [1]; > 100 µM (inactive) in assay [14]; > 100 µM (inactive) in [2]; > 10 µM (inactive) in assay [3]; > 100 µM (inactive) in assay [4]; 60 µM (inactive) in assay [5]. Besides, the GI50 in assay [6] was > 100 µM (inactive); in assay [15], > 100 µM (inactive); in [7] it was > 10 µM (inactive); in [16], 65.6 µM (inactive); in assay [9], > 100 µM (inactive); in assay [10] it was 71.1 µM (inactive). In addition, the results for the GI50 in assay [11] and in [12] were > 100 µM (inactive) and 53.5 µM, respectively.
In the case of `COC(=O)/C(=N\Nc1nc(S)nn1N)C(C#N)c1ccccc1` (stereo not given), the GI50 in assay [1], in assay [14], in assay [2], in assay [3], in [4] and in assay [6] was > 100 µM (inactive) in each case. In addition, the GI50 in assay [15], in assay [7], in [16], in [8], in assay [9] and in [10] was > 100 µM (inactive) throughout. For the same molecule, the figures for the GI50 in assay [11], in [12] and in assay [13] were > 100 µM (inactive), > 100 µM and > 100 µM (inactive), respectively.
For `C/C=C/C=C/[C@H]1Cc2cc(O)cc(O)c2O1`, the GI50 in [1] was > 100 µM (inactive); in [14], 81.3 µM (inactive); in [3], 36.6 µM (inactive); in [4] it was > 100 µM (inactive); in assay [5] it was 28.9 µM (inactive); in assay [6] it was 72.4 µM (inactive). The GI50 was 51.5 µM (inactive) in assay [15]; 35 µM (inactive) in [7]; 82 µM (inactive) in assay [16]; 33 µM (inactive) in [9]; 30.8 µM (inactive) in assay [10]; > 100 µM (inactive) in [11]. Also, the GI50 was 84.9 µM in assay [12] and 80.7 µM (inactive) in assay [13].
As to `O=C(C#Cc1cnc(O)nc1O)c1ccccc1`, the GI50 is 17.9 µM (inactive) in assay [1]; 7 µM (inactive) in [14]; 18.3 µM (inactive) in [2]; 18.5 µM (inactive) in assay [4]; 14.9 µM (inactive) in [5]; 21.8 µM (inactive) in assay [6]. Besides, the GI50 was 13.7 µM (inactive) in assay [15]; 14.1 µM (inactive) in assay [7]; 11.3 µM (inactive) in assay [16]; 7.76 µM (inactive) in [8]; 2.09 µM (inactive) in assay [9]; 1.97 µM (inactive) in assay [10]. Moreover, the GI50 in [11] is 18.9 µM (inactive); in [12], 12.3 µM; in assay [13], 17.3 µM (inactive).
With `NCCOCn1cc(Cc2cccc(OCc3ccccc3)c2)c(=O)[nH]c1=O`, the GI50 was > 100 µM (inactive) in assay [1]; 86.7 µM (inactive) in [14]; 42.2 µM (inactive) in assay [2]; 70 µM (inactive) in assay [5]; 71.1 µM (inactive) in [6]; > 100 µM (inactive) in assay [15]. Besides, the GI50 in assay [7] was 90.6 µM (inactive); in assay [16], > 100 µM (inactive); in assay [8], > 100 µM (inactive); in [9], > 100 µM (inactive); in assay [10], 44.1 µM (inactive); in assay [12] it was > 100 µM. The GI50 in assay [13] was > 100 µM (inactive).
Turning to `CCCC(Sc1ccccc1)P(=O)(c1ccccc1)c1ccccc1` (stereo not given), the GI50 in [14] was 31.3 µM (inactive); in assay [3] it was 31.5 µM (inactive); in assay [4], 46.6 µM (inactive); in [5], 36.6 µM (inactive); in assay [15], 35.6 µM (inactive); in [7], 37.8 µM (inactive). For the same molecule, the GI50 in assay [16] is 19.6 µM (inactive); in assay [8], 19 µM (inactive); in assay [9], 41.1 µM (inactive); in [10], 29.9 µM (inactive); in [13], > 100 µM (inactive).
`CCN(CC)CC(=O)/C=C/c1ccc(C)cc1`: the GI50 in assay [1] was 20.8 µM (inactive); in assay [14] it was 17.5 µM (inactive); in assay [2], 17.9 µM (inactive); in assay [4], 34.1 µM (inactive); in assay [5], 22.2 µM (inactive); in assay [6] it was 22.3 µM (inactive). Moreover, the GI50 is 30.5 µM (inactive) in assay [15]; 15.8 µM (inactive) in [7]; 25.1 µM (inactive) in [16]; 34.6 µM (inactive) in assay [8]; 19.9 µM (inactive) in assay [9]; 2.93 µM (inactive) in assay [10]. Moreover, the GI50 was 42.3 µM (inactive) in assay [11], 18.9 µM in assay [12] and 15.1 µM (inactive) in assay [13].

The record behind these values is ChEMBL document CHEMBL1201862, “PubChem BioAssay data set” (2004).
